Measured values published in PubChem BioAssay AID1963968 (Molecular Pharmacology Branch, DTP, NCI, 2024).

Test system: 945468-187-T-J3-PDC spheroids with HUVEC/MSC, viability
Test: Anticancer human tumor 945468-187-T-J3-PDC patient-derived rectal carcinoma cell line growth inhibition [PI3K]
Conditions: for IC50: curve of first compound; for viability, T/C: stronger effect = lower value
Summary of the method: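 Stroma-containing spheroids: tumor line, pooled-donor HUVEC, hMSC. Treatments: targeted agents with PI3K inhibitors. Dosing: clinically relevant, half-log spacing, 10 microM ceiling without known Cmax. Read-out: cell viability.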

[1] = second compound 0.0316 µM, first compound 0.0316 µM
[2] = second compound 0.0316 µM, first compound 0.1 µM
[3] = second compound 0.0316 µM, first compound 0.316 µM
[4] = second compound 0.0316 µM, first compound 1 µM
[5] = second compound 0.0316 µM, first compound 3.16 µM
[6] = second compound 0.0316 µM, first compound 10 µM
[7] = second compound 0.1 µM, first compound 0.0316 µM
[8] = second compound 0.1 µM, first compound 0.1 µM
[9] = second compound 0.1 µM, first compound 0.316 µM
[10] = second compound 0.1 µM, first compound 1 µM
[11] = second compound 0.1 µM, first compound 3.16 µM
[12] = second compound 0.1 µM, first compound 10 µM
[13] = second compound 0.316 µM, first compound 0.0316 µM
[14] = second compound 0.316 µM, first compound 0.1 µM
[15] = second compound 0.316 µM, first compound 0.316 µM
[16] = second compound 0.316 µM, first compound 1 µM
[17] = second compound 0.316 µM, first compound 3.16 µM
[18] = second compound 0.316 µM, first compound 10 µM
[19] = second compound 1 µM, first compound 0.0316 µM
[20] = second compound 1 µM, first compound 0.1 µM
[21] = second compound 1 µM, first compound 0.316 µM
[22] = second compound 1 µM, first compound 1 µM
[23] = second compound 1 µM, first compound 3.16 µM
[24] = second compound 1 µM, first compound 10 µM
[25] = second compound 3.16 µM, first compound 0.0316 µM
[26] = second compound 3.16 µM, first compound 0.1 µM
[27] = second compound 3.16 µM, first compound 0.316 µM
[28] = second compound 3.16 µM, first compound 1 µM
[29] = second compound 3.16 µM, first compound 3.16 µM
[30] = second compound 3.16 µM, first compound 10 µM
[31] = second compound 10 µM, first compound 0.0316 µM
[32] = second compound 10 µM, first compound 0.1 µM
[33] = second compound 10 µM, first compound 0.316 µM
[34] = second compound 10 µM, first compound 1 µM
[35] = second compound 10 µM, first compound 3.16 µM
[36] = second compound 10 µM, first compound 10 µM
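Also: spheroids exposed to agents for 7 days before viability read.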
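For viability, T/C in this document: 100% = DMSO vehicle control viability.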

`CCCS(=O)(=O)Nc1ccc(F)c(C(=O)c2c[nH]c3ncc(-c4ccc(Cl)cc4)cc23)c1F` + Cc1nc(NC(=O)N2CCCC2C(N)=O)sc1-c1ccnc(C(C)(C)C(F)(F)F)c1 showed an IC50 (second compound 0.0316 µM) of 6.38 µM, an IC50 (second compound 0.1 µM) of 7.05 µM and an IC50 (second compound 0.316 µM) of 8.19 µM. The IC50 (second compound 1 µM) was > 10 µM, the IC50 (second compound 3.16 µM) was 7.2 µM and the IC50 (second compound 10 µM) was 1.84 µM. It also gave a viability, T/C [1] of 99.8%, a viability, T/C [2] of 109% and a viability, T/C [3] of 87.1%. For the same compound, the viability, T/C [4] was 103%, the viability, T/C [5] was 107% and the viability, T/C [6] was 17.1%. For the same compound, the viability, T/C [7] was 111%, the viability, T/C [8] was 98% and the viability, T/C [9] was 93.3%. The viability, T/C [10] was 105%, the viability, T/C [11] was 107% and the viability, T/C [12] was 26.9%. The viability, T/C [13] was 109%, the viability, T/C [14] was 101% and the viability, T/C [15] was 100%. For the same compound, the viability, T/C [16] was 119%, the viability, T/C [17] was 108% and the viability, T/C [18] was 37.9%. For the same compound, the viability, T/C [19] was 119%, the viability, T/C [20] was 116% and the viability, T/C [21] was 112%. The viability, T/C [22] was 114%, the viability, T/C [23] was 104% and the viability, T/C [24] was 56.9%. The viability, T/C [25] was 106%, the viability, T/C [26] was 110% and the viability, T/C [27] was 101%. For the same compound, the viability, T/C [28] was 99.7%, the viability, T/C [29] was 96.3% and the viability, T/C [30] was 31.2%. It also gave a viability, T/C [31] of 67.1%, a viability, T/C [32] of 52.8% and a viability, T/C [33] of 53.3%. For the same compound, the viability, T/C [34] was 64.9%, the viability, T/C [35] was 41.5% and the viability, T/C [36] was 5.18%.

`C[C@@H](NC(=O)c1ncnc(N)c1Cl)c1ncc(C(=O)Nc2cc(C(F)(F)F)c(Cl)cn2)s1` + Cc1nc(NC(=O)N2CCCC2C(N)=O)sc1-c1ccnc(C(C)(C)C(F)(F)F)c1 was tested, and the IC50 (second compound 0.0316 µM) was > 10 µM, the IC50 (second compound 0.1 µM) was > 10 µM and the IC50 (second compound 0.316 µM) was > 10 µM. The IC50 (second compound 1 µM) was > 10 µM, the IC50 (second compound 3.16 µM) was > 10 µM and the IC50 (second compound 10 µM) was > 10 µM. For the same compound, the viability, T/C [1] was 107%, the viability, T/C [2] was 107% and the viability, T/C [3] was 91.6%. For the same compound, the viability, T/C [4] was 111%, the viability, T/C [5] was 106% and the viability, T/C [6] was 105%. It also gave a viability, T/C [7] of 101%, a viability, T/C [8] of 97.2% and a viability, T/C [9] of 94.8%. For the same compound, the viability, T/C [10] was 110%, the viability, T/C [11] was 111% and the viability, T/C [12] was 107%. For the same compound, the viability, T/C [13] was 95.8%, the viability, T/C [14] was 98.6% and the viability, T/C [15] was 95.4%. For the same compound, the viability, T/C [16] was 120%, the viability, T/C [17] was 112% and the viability, T/C [18] was 100%. For the same compound, the viability, T/C [19] was 108%, the viability, T/C [20] was 115% and the viability, T/C [21] was 102%. The viability, T/C [22] was 114%, the viability, T/C [23] was 97.6% and the viability, T/C [24] was 107%. For the same compound, the viability, T/C [25] was 108%, the viability, T/C [26] was 98% and the viability, T/C [27] was 101%. For the same compound, the viability, T/C [28] was 96.4%, the viability, T/C [29] was 99% and the viability, T/C [30] was 103%. The viability, T/C [31] was 67.1%, the viability, T/C [32] was 51.1% and the viability, T/C [33] was 44.1%. For the same compound, the viability, T/C [34] was 56%, the viability, T/C [35] was 61.9% and the viability, T/C [36] was 51.3%.

With `Cn1ncnc1[C@H]1c2n[nH]c(=O)c3cc(F)cc(c23)N[C@@H]1c1ccc(F)cc1` + Cc1nc(NC(=O)N2CCCC2C(N)=O)sc1-c1ccnc(C(C)(C)C(F)(F)F)c1 the IC50 (second compound 0.0316 µM) was > 0.1 µM, the IC50 (second compound 0.1 µM) was > 0.1 µM and the IC50 (second compound 0.316 µM) was > 0.1 µM. The IC50 (second compound 1 µM) was > 0.1 µM, the IC50 (second compound 3.16 µM) was > 0.1 µM and the IC50 (second compound 10 µM) was > 0.1 µM. It also gave a viability, T/C (second compound 0.0316 µM, first compound 0.000316 µM) of 96.6%, a viability, T/C (second compound 0.0316 µM, first compound 0.001 µM) of 102% and a viability, T/C (second compound 0.0316 µM, first compound 0.00316 µM) of 101%. For the same compound, the viability, T/C (second compound 0.0316 µM, first compound 0.01 µM) was 116%, the viability, T/C [1] was 116% and the viability, T/C [2] was 114%. For the same compound, the viability, T/C (second compound 0.1 µM, first compound 0.000316 µM) was 105%, the viability, T/C (second compound 0.1 µM, first compound 0.001 µM) was 105% and the viability, T/C (second compound 0.1 µM, first compound 0.00316 µM) was 91.8%. It also gave a viability, T/C (second compound 0.1 µM, first compound 0.01 µM) of 106%, a viability, T/C [7] of 120% and a viability, T/C [8] of 100%. The viability, T/C (second compound 0.316 µM, first compound 0.000316 µM) was 111%, the viability, T/C (second compound 0.316 µM, first compound 0.001 µM) was 103% and the viability, T/C (second compound 0.316 µM, first compound 0.00316 µM) was 92.6%. The viability, T/C (second compound 0.316 µM, first compound 0.01 µM) was 118%, the viability, T/C [13] was 115% and the viability, T/C [14] was 105%. It also gave a viability, T/C (second compound 1 µM, first compound 0.000316 µM) of 118%, a viability, T/C (second compound 1 µM, first compound 0.001 µM) of 109% and a viability, T/C (second compound 1 µM, first compound 0.00316 µM) of 89.9%. The viability, T/C (second compound 1 µM, first compound 0.01 µM) was 115%, the viability, T/C [19] was 99.8% and the viability, T/C [20] was 97.4%. It also gave a viability, T/C (second compound 3.16 µM, first compound 0.000316 µM) of 116%, a viability, T/C (second compound 3.16 µM, first compound 0.001 µM) of 103% and a viability, T/C (second compound 3.16 µM, first compound 0.00316 µM) of 98.7%. The viability, T/C (second compound 3.16 µM, first compound 0.01 µM) was 109%, the viability, T/C [25] was 107% and the viability, T/C [26] was 103%. The viability, T/C (second compound 10 µM, first compound 0.000316 µM) was 58.2%, the viability, T/C (second compound 10 µM, first compound 0.001 µM) was 68% and the viability, T/C (second compound 10 µM, first compound 0.00316 µM) was 61.3%. For the same compound, the viability, T/C (second compound 10 µM, first compound 0.01 µM) was 53.3%, the viability, T/C [31] was 63.7% and the viability, T/C [32] was 51.3%.
